Data reported in patent US5859019A, “Methods for protecting against cardiac ischemia by administering adenosine A2a receptor antagonists” (priority 1997, dated 1999).

What was measured:
[1] = test system: rat brain A1 and A2 receptors; details: rat brain adenosine receptors, radioligand binding; cited from earlier work
[2] = test system: ventricular cells cultured from chick embryos; test: Hypoxia-induced injury / preconditioning of cultured ventricular cells (% cells killed, CK released); type: cell-based; details: for EC (maximal effect): Gallus gallus, agonist replacing preconditioning hypoxia, read-out: Concentration giving maximal preconditioning effect; for Ability to replace preconditioning hypoxia (protection against injury by ninety-minute hypoxia; % cells killed, CK released): agent given for 5 min in place of preconditioning hypoxia, before 90-min hypoxia, adenosine 10 μM, R-PIA 10 μM; for Ability to replace preconditioning hypoxia (protection against injury by ninety-minute hypoxia; % cells killed, CK released) / Effect on protection by preconditioning hypoxia (% cells killed, CK released): CGS21680 1 μM; for Effect on protection by preconditioning hypoxia (% cells killed, CK released): agent present during five-minute preconditioning hypoxia, CSC 1 μM, 8-SPT 100 μM, isoproterenol 0.3 μM, forskolin 1 μM, BayK 8644 0.1 μM
Experimental: Ventricular cells were cultured from chick embryos 14 days in ovo, according to a previously described procedure (20, 27). Cells were plated at a density of 400,000 cells per ml and cultivated in a humidified 5% CO2 -95% air mixture at 37° C. […] For preconditioning studies, the medium was changed to a HEPES-buffered medium containing (mM) 139 NaCl, 4.7 KCl, 0.5 MgCl2, 0.9 CaCl2, 5 HEPES (N-2-hydroxyethylpiperazine-N'-2-ethanesulfonic acid) and 2% fetal bovine serum, pH=7.4, 37° C. before exposing cells to the various conditions at 37° C. Control cells were maintained in the HEPES-buffered media under room air. Hypoxia was produced by placing the cells in a hypoxic incubator (NuAire) where O2 was replaced by N2. The % O2 was monitored by both an oxygen Fyrite Gas Analyzer (Bacharach) and an oxygen analyzer (Model OX630, Engineered Systems & Designs). Preconditioning was induced by exposing the cells to five minutes of hypoxia, termed preconditioning hypoxia, prior to a second ninety-minute hypoxia. Cells not subjected to preconditioning were exposed to ninety minutes of hypoxia only (nonpreconditioned cells). The extracellular pH was similarly maintained at 7.4 by HEPES in both preconditioned and nonpreconditioned cells. Determination of basal level of cell injury was made after parallel incubation of control cells under normal % O2. For preconditioned and nonpreconditioned cells, determination of cell injury was made at the end of the ninety-minute hypoxic period.
The extent of hypoxia-induced injury to the ventricular cell was quantitatively determined by the percentages of cells killed and by the amount of creatine kinase (CK) released into the media. To quantitate the % cells killed, cells were exposed to a trypsin-EDTA Hanks' balanced salt solution for 10 minutes for detachment after the various treatment, followed by centrifugation (300 × g for 10 minutes) and resuspension in culture media for counting in a hemocytometer. Only live cells sedimented and the cells counted represented those that survived (29). None of the sedimented cells subsequently counted included trypan blue. […] There was no protein or CK in the culture media following a second 300 × g centrifugation of resuspended cells previously treated with trypsin-EDTA. […] In contrast, the trypsin-EDTA media from cells exposed to 90 minutes of hypoxia contained substantial amount of proteins (0.15±0.03 mg, n=9) and CK activity (16±3 unit/mg protein, n=8). […] Because trypsin may cause further proteolysis of proteins and CK, the amount of protein and CK retained by the damaged cells in the trypsin-EDTA media may not accurately reflect those associated with the damaged cells. In support of the notion that exposure to 90 minutes of hypoxia caused significant cell injury and loss of membrane integrity, there was also marked release of LDH (hypoxia-exposed cells, 35.5±2.7, unit/mg, n=8, ±S.E. vs. control cells, 6.1±0.4 unit/mg, n=8) and proteins (hypoxia-exposed cells, 0.15±0.03 mg, n=8 vs. control cells, 0.034±0.01 mg, n=8) from the cells incubated under prolonged hypoxia. Thus, the cell viability assay separated out the hypoxia-damaged from the control normoxia-exposed cells. […] The amount of CK was measured as enzyme activity (unit/mg), and increases in CK activity above the control level were determined. The percentage of cells killed was calculated as the number of cells obtained from the control group (representing cells not subjected to any hypoxia or drug treatment) minus the number of cells from the treatment group divided by number of cells in control group multiplied by 100%.
To investigate the role of adenosine in mediating the preconditioning effect, the ventricular cells, instead of being exposed to the brief hypoxia, were incubated with adenosine (10 μM) for 5 minutes prior to the ninety minute hypoxia. In adenosine-treated cells, media were replaced with adenosine-free media for ten minutes prior to a ninety-minute hypoxic exposure. […]

[3] = test system: ventricular cells cultured from chick embryos; test: 45Ca uptake in cultured ventricular cells; type: cell-based
Experimental: Determination of ^45 Ca uptake was made according to a modification of previously described method (20). Cultures were incubated with L-(3, 4, 5-^3 H, N)-leucine (152.2 Ci/mmol) for a 24 hour prior to ^45 Ca uptake. [^3 H] leucine incorporated into the cellular protein allowed normalization of ^45 Ca content to mg cell protein. After incubation with ^45 Ca-containing medium, cells were then washed free of ^45 Ca and solubilized for 2 hours with 1% sodium dodecyl sulfate and 10 mM sodium borate and the levels of ^3 H and ^45 Ca were determined. For all data comparing the effect of different agents on ^45 Ca uptake, one-way ANOVA analysis followed by group comparison with t-test was carried out at each time point of the ^45 Ca uptake. Cyclic AMP level was determined according to a previously described radioimmunoassay (27).

Row | Compound | A1/A2 ratio (A2a receptor selectivity ratio) [1] | further results
1 | COc1cc(/C=C/c2nc3c([nH]2)c(=O)n(C)c(=O)n3C)cc(OC)c1 [33a] | 25 | 
2 | Cn1c(=O)c2c(nc(/C=C/c3cccc([N+](=O)[O-])c3)n2C)n(C)c1=O [21b] | 11 | 
3 | Cn1c(=O)c2c(nc(/C=C/c3cc(F)cc(F)c3)n2C)n(C)c1=O [34b] | 230 | 
4 | OC[C@H]1O[C@@H](n2cnc3c(NC4CCCC4)nc(Cl)nc32)[C@H](O)[C@@H]1O [CCPA] |  | EC (maximal effect) [2]: 0.1 µM; Ability to replace preconditioning hypoxia (protection against injury by ninety-minute hypoxia; % cells killed, CK released) [2]: can replace preconditioning hypoxia and simulate preconditioning
5 | COc1cc(/C=C/c2nc3c(c(=O)n(C)c(=O)n3C)n2C)cc(OC)c1OC(C)=O [compound 36] | 93 | 
6 | Cn1c(=O)c2c(nc(/C=C/c3cccc(Cl)c3)n2C)n(C)c1=O [compound 28, 8-(3-chlorostyryl)caffeine] |  | Effect on R-PIA-induced preconditioning (% cells killed, CK released) ([2]; CSC present during 5-min treatment with 10 μM R-PIA, P<0.01): enhanced the preconditioning effect; Ability to replace preconditioning hypoxia (protection against injury by ninety-minute hypoxia; % cells killed, CK released) [2]: had no effect on the extent of injury; Effect on protection by preconditioning hypoxia (% cells killed, CK released) [2]: increased protection
7 | COc1ccccc1/C=C/c1nc2c(c(=O)n(C)c(=O)n2C)n1C [17b] | 18 | 
8 | COc1ccc(/C=C/c2nc3c(c(=O)n(C)c(=O)n3C)n2C)cc1OC [32b] | 70 | 
9 | COc1ccc(/C=C/c2nc3c(c(=O)n(C)c(=O)n3C)n2C)c(OC)c1OC [43b] | 34 | 
10 | COc1cc(/C=C/c2nc3c(c(=O)n(C)c(=O)n3C)n2C)cc(OC)c1O [compound 35] | 19 | 
11 | C[C@H](Cc1ccccc1)Nc1ncnc2c1ncn2[C@@H]1O[C@H](CO)[C@@H](O)[C@H]1O [R-PIA, N^6 -R-phenyl-2-propyl adenosine] |  | Ability to replace preconditioning hypoxia (protection against injury by ninety-minute hypoxia; % cells killed, CK released) [2]: could substitute for preconditioning hypoxia and induce preconditioning
12 | COc1cc(/C=C/c2nc3c(c(=O)n(C)c(=O)n3C)n2C)cc(OC)c1OC/C=C/CNC(=O)OC(C)(C)C [compound 42] | > 40 | 
13 | Nc1ncnc2c1ncn2[C@@H]1O[C@H](CO)[C@@H](O)[C@H]1O [Adenosine, adenosine] |  | Ability to replace preconditioning hypoxia (protection against injury by ninety-minute hypoxia; % cells killed, CK released) [2]: significant attenuation of the injury
14 | Cn1c(=O)c2c(nc(/C=C/c3cccc(N)c3)n2C)n(C)c1=O [22b] | 30 | 
15 | Cn1c(=O)c2c(nc(/C=C/c3cccc(C(F)(F)F)c3)n2C)n(C)c1=O [20b] | 25 | 
16 | CCNC(=O)[C@H]1O[C@@H](n2cnc3c(N)nc(NCCc4ccc(CCC(=O)O)cc4)nc32)[C@H](O)[C@@H]1O [CGS21680, 2-[4-(2-carboxyethyl)phenylethylamino]-5'-N-ethylcarboxiamidoadenosine] |  | Ability to replace preconditioning hypoxia (protection against injury by ninety-minute hypoxia; % cells killed, CK released) [2]: could not; Effect on protection by preconditioning hypoxia (% cells killed, CK released) [2]: attenuated the protection; 45Ca uptake ([3]; after 90-second exposure to 45Ca-containing media, CGS21680 1 μM, control 4.2±0.1, ±S.D.): 5.8 ± 0.2 nmol/mg; 45Ca uptake, CGS21680 plus nifedipine ([3]; after 90-second exposure to 45Ca, CGS21680 1 μM plus nifedipine 1 μM, control 4.2±0.1, ±S.D.): 4.4 ± 0.1 nmol/mg
17 | COc1cc(/C=C/c2nc3c(c(=O)n(C)c(=O)n3C)n2C)cc(OC)c1 [33b] | > 200 | 

Row | Compound | A1/A2 ratio (A2a receptor selectivity ratio) [1] | further results
18 | COc1cc(/C=C/c2nc3c(c(=O)n(C)c(=O)n3C)n2C)cc(OC)c1OC [44b] | 70 | 
19 | CNC(=O)[C@H]1O[C@@H](n2cnc3c(NCc4cccc(I)c4)nc(Cl)nc32)[C@H](O)[C@@H]1O [C1-IB-MECA, 2-chloro-N^6-(3-iodobenzyl)adenosine-5'-N-methyluronamide] |  | EC (maximal effect) [2]: 0.1 µM; Ability to replace preconditioning hypoxia (protection against injury by ninety-minute hypoxia; % cells killed, CK released) [2]: can replace preconditioning hypoxia and simulate preconditioning
20 | COc1cc(/C=C/c2nc3c(c(=O)n(C)c(=O)n3C)n2C)cc(OC)c1OCCCCN [compound 38] | 36 | 
21 | COc1cc(/C=C/c2nc3c(c(=O)n(C)c(=O)n3C)n2C)cc(OC)c1OC/C=C/CN [compound 40] | 28 | 
22 | COc1cc(/C=C/c2nc3c(c(=O)n(C)c(=O)n3C)n2C)cc(OC)c1OCc1ccccc1 [compound 37] | 30 | 
23 | C=CCn1c(=O)c2c(nc(/C=C/c3cc(OC)c(OC)c(OC)c3)n2C)n(CC=C)c1=O [compound 46] | 13 | 
24 | COc1cc(/C=C/c2nc3c(c(=O)n(C)c(=O)n3C)n2C)cc(OC)c1OC/C=C/CNC(C)=O [compound 41] | > 50 | 
25 | CCCn1c(=O)c2c(nc(/C=C/c3cc(OC)cc(OC)c3)n2C)n(CCC)c1=O [53b] | 110 | 
26 | Cn1c(=O)c2c(nc(/C=C/c3cccc(NC(=O)CCC(=O)O)c3)n2C)n(C)c1=O [compound 24] | 250 | 
27 | Cn1c(=O)c2c(nc(/C=C/c3cccc(N(C(=O)OC(C)(C)C)C(=O)OC(C)(C)C)c3)n2C)n(C)c1=O [compound 26] | 15 | 
28 | Cn1c(=O)c2c(nc(/C=C/c3cccc(NC(=O)OC(C)(C)C)c3)n2C)n(C)c1=O [compound 25] | 30 | 
29 | COC(=O)C1=C(C)NC(C)=C([N+](=O)[O-])C1c1ccccc1C(F)(F)F (stereo not shown) [BayK 8644] |  | Ability to replace preconditioning hypoxia (protection against injury by ninety-minute hypoxia; % cells killed, CK released) [2]: Neither isoproterenol, forskolin nor BayK8644 had any effect on the level of protection; Effect on protection by preconditioning hypoxia (% cells killed, CK released) [2]: caused an increase in % cells killed and amount of CK released; Calcium influx into the cultured cells ([3]; isoproterenol 0.3 μM, forskolin 1 μM, BayK 8644 0.1 μM, data not shown): induced increased calcium influx
30 | COc1cccc(/C=C/c2nc3c(c(=O)n(C)c(=O)n3C)n2C)c1 [19b] | 64 | 
31 | Cn1c(=O)c2c(nc(/C=C/c3cccc(F)c3)n2C)n(C)c1=O [27b] | 190 | 
32 | COc1ccc(/C=C/c2nc3c(c(=O)n(C)c(=O)n3C)n2C)cc1 [29b] | 44 | 
33 | COc1cc(/C=C/c2nc3c(c(=O)n(C)c(=O)n3C)n2C)cc(OC)c1OCCCCNC(=O)OC(C)(C)C [compound 39] | 42 | 
34 | CC(=O)Nc1cccc(/C=C/c2nc3c(c(=O)n(C)c(=O)n3C)n2C)c1 [compound 23] | 240 | 
